Source: US7462600B2, “Macrolides” (Pfizer Inc, priority 2004, dated 2008)
≈ marks a conversion by molar mass, not a printed value. Like-named read-outs stand apart in the source and are kept apart here.

How the values were obtained:
Type in all cases: cell-based
[1] = test system: Streptococcus pyogenes 1079; test: MIC, microtiter broth dilution (NCCLS M100-S14), S. pyogenes 1079 (ermB)
In short: (§1)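 NCCLS M100-S14 rules govern how the microdilution MICs are interpreted. Each compound starts as a 40 mg/ml solution in DMSO before dilution.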

[2] = test system: Streptococcus pneumoniae 1016; test: MIC, microtiter broth dilution (NCCLS M100-S14), S. pneumoniae 1016 (susceptible)
In short: as §1

[3] = test system: Streptococcus pneumoniae 1095; settings: microtiter broth dilution
In short: as §1

[4] = test system: Streptococcus pneumoniae 1175; settings: microtiter broth dilution
In short: as §1

[5] = test system: Haemophilus influenzae 1218; test: MIC, microtiter broth dilution (NCCLS M100-S14), H. influenzae 1218 (susceptible)
In short: as §1

[6] = S. pneumoniae 1016 (susceptible)
[7] = H. influenzae 1218 (susceptible)

Row | Structure (SMILES) | MIC S. pyogenes 1079 ([1]; Streptococcus pyogenes 1079) [µg/mL] | MIC S. pneumo. 1016 ([2]; Streptococcus pneumoniae 1016) [µg/mL] | MIC S. pneumo. 1095 ([3]; Streptococcus pneumoniae 1095) [µg/mL] | MIC S. pneumo. 1175 ([4]; Streptococcus pneumoniae 1175) [µg/mL] | MIC H. influenzae 1218 ([5]; Haemophilus influenzae 1218) [µg/mL] | MIC S. pyogenes 1079 ([1]; S. pyogenes 1079 (ermB)) [µg/mL] | MIC S. pneumo. 1016 [2, 6] [µg/mL] | MIC S. pneumo. 1095 ([3]; S. pneumoniae 1095 (ermB)) [µg/mL] | MIC S. pneumo. 1175 ([4]; S. pneumoniae 1175 (mefA)) [µg/mL] | MIC H. influenzae 1218 [5, 7] [µg/mL]
1 | CC[C@H]1OC(=O)[C@H](C)C(=O)[C@H](C)[C@@H](O[C@@H]2O[C@H](C)C[C@H](N(C)C)[C@H]2O)[C@](C)(OC)C[C@@H](C)C(=O)[C@H](C)[C@H]2N(CC3(C)CN(Cc4ccc5cccnc5c4)C3)C(=O)O[C@]12C [6.06] | >64.00 | <0.06 | 0.5 (≈ 0.597 µM) | 0.5 (≈ 0.597 µM) | 1 (≈ 1.19 µM) | – | – | – | – | –
2 | CC[C@H]1OC(=O)[C@H](C)C(=O)[C@H](C)[C@@H](O[C@@H]2O[C@H](C)C[C@H](N(C)C)[C@H]2O)[C@](C)(OC)C[C@@H](C)C(=O)[C@H](C)[C@H]2N(CC3(O)CN(Cc4c[nH]c(=O)[nH]c4=O)C3)C(=O)O[C@]12C [7.09] | – | – | – | – | – | >64.00 | 0.5 (≈ 0.608 µM) | 64 (≈ 77.9 µM) | 16 (≈ 19.5 µM) | 16 (≈ 19.5 µM)
3 | CCC1OC(=O)C(C)C(=O)C(C)C(OC2OC(C)CC(N(C)C)C2O)C(C)(OC)CC(C)C(=O)C(C)C2N(CC3CCN(Cc4cccnc4OC)CC3)C(=O)OC12C (centres unmarked) [15.06] | – | – | – | – | – | >64.00 | <0.06 | >64.00 | 0.5 (≈ 0.602 µM) | 32 (≈ 38.5 µM)
4 | CCC1OC(=O)C(C)C(=O)C(C)C(OC2OC(C)CC(N(C)C)C2O)C(C)(OC)CC(C)C(=O)C(C)C2N(C3CN(Cc4cc(=O)[nH]c5ccc(Cl)cc45)C3)C(=O)OC12C (centres unmarked) [Example 1.36, (6-chloro-1H-quinolin-2-on-4-yl)methyl] | 8 (≈ 9.31 µM) | <0.06 | <0.06 | 0.12 (≈ 0.14 µM) | 0.5 (≈ 0.582 µM) | – | – | – | – | –
5 | CCC1OC(=O)C(C)C(=O)C(C)C(OC2OC(C)CC(N(C)C)C2O)C(C)(OC)CC(C)C(=O)C(C)C2N(C3CN(C(C)c4ccncc4)C3)C(=O)OC12C (stereo not drawn) [Example 1.21, 1R-(pyridin-4-yl)ethyl] | 32 (≈ 41.4 µM) | <0.06 | <0.06 | 0.5 (≈ 0.647 µM) | 2 (≈ 2.59 µM) | – | – | – | – | –
6 | CCC1OC(=O)C(C)C(=O)C(C)C(OC2OC(C)CC(N(C)C)C2O)C(C)(OC)CC(C)C(=O)C(C)C2N(CC3C4CN(Cc5cccnc5)CC43)C(=O)OC12C (centres unmarked) [16.04] | – | – | – | – | – | >100.00 | 0.03 (≈ 0.0375 µM) | 3.12 (≈ 3.9 µM) | >100.00 | 0.5 (≈ 0.626 µM)
7 | CCC1OC(=O)C(C)C(=O)C(C)C(OC2OC(C)CC(N(C)C)C2O)C(C)(OC)CC(C)C(=O)C(C)C2N(CC3CN(C(=O)c4cccc(C#N)c4)C3)C(=O)OC12C (centres unmarked) [4.06] | >100.00 | 0.02 (≈ 0.0247 µM) | 12.5 (≈ 15.4 µM) | 0.39 (≈ 0.481 µM) | 3.12 (≈ 3.85 µM) | – | – | – | – | –
8 | CCC1OC(=O)C(C)C(=O)C(C)C(OC2OC(C)CC(N(C)C)C2O)C(C)(OC)CC(C)C(=O)C(C)C2N(CC3CCCN3C(=O)c3nc4cncnc4[nH]3)C(=O)OC12C (centres unmarked) [10.26] | – | – | – | – | – | >64.00 | <0.06 | <0.06 | 1 (≈ 1.19 µM) | 2 (≈ 2.38 µM)
9 | CCC1OC(=O)C(C)C(=O)C(C)C(OC2OC(C)CC(N(C)C)C2O)C(C)(OC)CC(C)C(=O)C(C)C2N(CC3CCCN3C(=O)c3ccc4cccnc4c3)C(=O)OC12C (centres unmarked) [12.12] | – | – | – | – | – | >64.00 | <0.06 | <0.06 | 1 (≈ 1.18 µM) | 2 (≈ 2.35 µM)
10 | CC[C@H]1OC(=O)[C@H](C)C(=O)[C@H](C)[C@@H](O[C@@H]2O[C@H](C)C[C@H](N(C)C)[C@H]2O)[C@](C)(OC)C[C@@H](C)C(=O)[C@H](C)[C@H]2N(CC3(C)CN(Cc4cccc5nccnc45)C3)C(=O)O[C@]12C [6.05] | >64.00 | <0.06 | <0.06 | 0.12 (≈ 0.143 µM) | 1 (≈ 1.19 µM) | – | – | – | – | –
11 | CC[C@H]1OC(=O)[C@H](C)[C@@H](OC(=O)N2CCCC2)[C@H](C)[C@@H](O[C@@H]2O[C@H](C)C[C@H](N(C)C)[C@H]2O)[C@](C)(OC)C[C@@H](C)C(=O)[C@H](C)[C@H]2N(CC3CN(Cc4nc5ccccc5s4)C3)C(=O)O[C@]12C [Example 5.14, 2-R^2: (benzo[d]thiazol-2-yl)methyl; R^#: pyrrolidin-1-yl] | 32 (≈ 34.5 µM) | <0.06 | 4 (≈ 4.31 µM) | <0.06 | 4 (≈ 4.31 µM) | – | – | – | – | –
12 | CCC1OC(=O)C(C)C(=O)C(C)C(OC2OC(C)CC(N(C)C)C2O)C(C)(OC)CC(C)C(=O)C(C)C2N(CC3CCN(Cc4cnc5ccccc5c4)C3)C(=O)OC12C (centres unmarked) [11.03] | – | – | – | – | – | 64 (≈ 76.5 µM) | <0.06 | <0.06 | 0.5 (≈ 0.597 µM) | 2 (≈ 2.39 µM)
13 | CCC1OC(=O)C(C)C(=O)C(C)C(OC2OC(C)CC(N(C)C)C2O)C(C)(OC)CC(C)C(=O)C(C)C2N(CC3CCCN3C(=O)c3ccc(C)[nH]c3=O)C(=O)OC12C (centres unmarked) [10.48] | – | – | – | – | – | >64.00 | <0.06 | 4 (≈ 4.81 µM) | 0.5 (≈ 0.602 µM) | 1 (≈ 1.2 µM)
14 | CC[C@H]1OC(=O)[C@H](C)C(=O)[C@H](C)[C@@H](O[C@@H]2O[C@H](C)C[C@H](N(C)C)[C@H]2O)[C@](C)(OC)C[C@@H](C)C(=O)[C@H](C)[C@H]2N(CC3(C)CN(Cc4ccc5[nH]ccc5c4)C3)C(=O)O[C@]12C [6.10] | – | – | – | – | – | >64.00 | <0.06 | 0.25 (≈ 0.303 µM) | 0.12 (≈ 0.145 µM) | 1 (≈ 1.21 µM)
15 | CCC1OC(=O)C(C)C(=O)C(C)C(OC2OC(C)CC(N(C)C)C2O)C(C)(OC)CC(C)C(=O)C(C)C2N(C3CN(Cc4c[nH]nc4-c4ccc(F)cc4)C3)C(=O)OC12C (centres unmarked) [Example 1.42, (1H-3-[4-fluorophenyl]-pyrazol-4-yl)methyl] | >64.00 | <0.06 | <0.06 | 0.25 (≈ 0.297 µM) | 2 (≈ 2.38 µM) | – | – | – | – | –
16 | CCC1OC(=O)C(C)C(=O)C(C)C(OC2OC(C)CC(N(C)C)C2O)C(C)(OC)CC(C)C(=O)C(C)C2N(CC3CCN(Cc4nc5ccccc5n4C)C3)C(=O)OC12C (centres unmarked) [11.06] | – | – | – | – | – | >64.00 | <0.06 | 2 (≈ 2.38 µM) | 2 (≈ 2.38 µM) | 4 (≈ 4.76 µM)
17 | CC[C@H]1OC(=O)[C@H](C)C(=O)[C@H](C)[C@@H](O[C@@H]2O[C@H](C)C[C@H](N(C)C)[C@H]2O)[C@](C)(OC)C[C@@H](C)C(=O)[C@H](C)[C@H]2N(CC3(O)CN(C(=O)c4cnc5ncccc5c4)C3)C(=O)O[C@]12C [7.25] | – | – | – | – | – | >64.00 | <0.06 | <0.06 | 2 (≈ 2.34 µM) | 1 (≈ 1.17 µM)
18 | CC[C@H]1OC(=O)[C@H](C)C(=O)[C@H](C)[C@@H](O[C@@H]2O[C@H](C)C[C@H](N(C)C)[C@H]2O)[C@](C)(OC)C[C@@H](C)C(=O)[C@H](C)[C@H]2N(CC3(C)CN(Cc4cnc5ccccc5n4)C3)C(=O)O[C@]12C [6.07] | >64.00 | <0.06 | 1 (≈ 1.19 µM) | 0.5 (≈ 0.597 µM) | 4 (≈ 4.77 µM) | – | – | – | – | –
19 | CCC1OC(=O)C(C)C(=O)C(C)C(OC2OC(C)CC(N(C)C)C2O)C(C)(OC)CC(C)C(=O)C(C)C2N(C3CN(Cc4c(Cl)cnc5ccccc45)C3)C(=O)OC12C (centres unmarked) [Example 1.107, 3-descladinosyl-11,12-dideoxy-6-O-methyl-3-oxo-12,11-(oxycarbonyl-(1-(3-chloroquinoline-4-methyl)-azetidin-3-yl)-imino)erythromycin A] | 0.25 (≈ 0.296 µM) | <0.063 | <0.063 | <0.063 | 1 (≈ 1.19 µM) | – | – | – | – | –
